The record followed here is ChEMBL document CHEMBL6182903, “Synthetic approaches and clinical application of KRAS inhibitors for cancer therapy” (Eur J Med Chem, 2025).

Molecules are shown by their SMILES.

Assay [1] concerns the target von Hippel-Lindau disease tumor suppressor/GTPase KRas (Homo sapiens, UniProt P01116+P40337, G12C). Put plainly: PROTAC activity at VHL/KRAS G12C mutant in human MIA PaCa-2 cells assessed as induction of KRAS G12C degradation. It is filed as cell-based.
A short description of assay [2]: PROTAC activity at CRBN/KRAS G12C mutant in human MIA PaCa-2 cells assessed as induction of KRAS G12C degradation. Format: cell-based.
The target of assay [3] is T1, GTPase KRas (Homo sapiens, UniProt P01116, G12S). Put plainly: Inhibition of KRAS G12S mutant in human A549 cells assessed as reduction in ERK phosphorylation. It is filed as cell-based.
Assay [4] deals with T1, GTPase KRas. The assay can be described thus: Binding affinity to human recombinant GDP-bound KRAS G12S mutant (1 to 169 residues) assessed as inhibition constant.
Assay [5] has as its system BaF3. Put plainly: Cytotoxicity against mouse BaF3 cells harboring KRAS G12R mutant assessed as reduction in cells growth incubated for 72 hrs by Celltiter-Glo luminescence-based assay. It is filed as functional, cell-based. As to conditions: BaF3, 72 h.

The DC50 is the concentration giving 50% degradation. `C=C(F)C(=O)N1CCN(c2nc(OC[C@@H]3CCCN3CCCOCCC(=O)N[C@H](C(=O)N3C[C@H](O)C[C@H]3C(=O)NCc3ccc(-c4scnc4C)cc3)C(C)(C)C)nc3c2CCN(c2cccc4cccc(Cl)c24)C3)C[C@@H]1CC#N`: the DC50 in assay [1] was 120 nM.

Consider `C=CC(=O)N1CCN(c2nc(NCCCN3CCN(CCCNc4cccc5c4C(=O)N(C4CCC(=O)NC4=O)C5=O)CC3)nc3c(F)c(-c4cc(O)cc5ccccc45)c(Cl)cc23)CC1` (stereo not given), for which the DC50 in assay [2] was found to be 3.2 µM.

For orientation: IC50 means the concentration that inhibits the measured activity by half. One may read the Ki as a measure of affinity in units of concentration, obtained from inhibition or displacement. As to `O=C1O[C@H]2CN(c3nc(OCC45CCCN4CCC5)nc4c3CCN(c3cccc5cccc(Cl)c35)C4)CC[C@@H]12`, in assay [3], the IC50 came to 2400 nM. Moreover, the Ki in assay [4] worked out at 26 µM.

Regarding `CC(=O)CC(=O)N1[C@@H]2CC[C@H]1CN(c1nc(OCC34CCCN3CCC4)nc3c(F)c(-c4cccc5cccc(Cl)c45)ncc13)C2`, the IC50 in assay [5] was less than 100 µM.
